According to PubChem BioAssay AID2124 (Sanford-Burnham Center for Chemical Genomics, 2009):
Records with an inconclusive call do not appear. The source made the active and inactive calls. How the calls were made is not given here; tested in MIN6 cells.

Assay: GFP-wavelength compound autofluorescence in cells – imaging, high-content imaging, artefact control, dose response (AID 2124);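 further: cells exposed to compound for 48 hours before fixing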
Conditions: cells, GFP-channel autofluorescence, high-content imaging, at 10 µM; for z-score: stronger effect = higher value

Compound	z-score	cell count [cells]
C(=C/c1nccc2c1[nH]c1ccccc12)/c1ccc2c(c1)OCO2	0.26	1910
Cc1ccc(NC(=O)CCn2cccc2)cc1Cl	-0.33 (inactive)	3190
CN(C)c1ccc(/C=C2\C(=N)N3C(=NC2=O)Sc2cc(S(C)(=O)=O)ccc23)cc1	-0.29 (inactive)	2790
O=C(N/N=C\c1cn(-c2ccccc2)nc1-c1ccccc1)c1ccc(Br)o1	-0.32 (inactive)	626
CCOc1ccc(-c2c(C#N)c(N)nc3sc(C(=O)c4ccccc4)c(N)c23)cc1	0.98	3090
CCCCCOC(=O)C1=C(C)Nc2nnnn2C1c1ccc(OC)c(OC)c1OC (centres undefined)	-0.39 (inactive)	3580
Cc1ccc(-n2c(O)c(/C=N/NC(=O)C3COc4ccccc4O3)c3ccccc3c2=O)cc1 (centres undefined)	-0.25 (inactive)	2870
CC(C)(CNS(=O)(=O)c1ccc(Cl)cc1)N1CCCCC1	-0.34 (inactive)	3730
CN(c1cccc(Cl)c1)S(=O)(=O)c1cccc(C(=O)NC2=NCCS2)c1	-0.33 (inactive)	3260
CCn1cc(C(=O)NCCN(C)CCc2ccccc2)c(=O)c2cc(S(=O)(=O)N(C)C)ccc21	-0.33 (inactive)	3360
CCOC(=O)N1CCN(S(=O)(=O)c2ccc3c(c2)oc(=O)n3C)CC1	-0.31 (inactive)	2780
O=C(CCl)Nc1cccc2ncccc12	-0.38 (inactive)	2060
N#C/C(=C\c1ccc(-c2ccc(C(=O)O)cc2)o1)c1nc2ccccc2[nH]1	-0.29 (inactive)	3280
CCOC(=O)N1CCN(C(=O)c2cc(S(=O)(=O)N3CCCC3)cn2C)CC1	-0.33 (inactive)	3250
Cc1ccc(-n2c(C)nc3oc4ccccc4c(=O)c3c2=O)cc1	-0.33 (inactive)	3180
Cc1[nH]n(-c2ccc([N+](=O)[O-])cc2)c(=O)c1C=NCCN1CCN(C(=O)c2ccccc2F)CC1	-0.26 (inactive)	3100
COc1ccc(C2=NC(=O)/C(=C\c3cc(OC)c(OC)c(OC)c3)O2)cc1	-0.38 (inactive)	2830
C=CCn1c(=NC(=O)c2cc(-c3cccs3)nc3ccccc23)sc2cc(S(N)(=O)=O)ccc21	-0.33 (inactive)	2770
CC(C)(C)c1ccc(OCC(=O)Nc2ccc3c4c(cccc24)C(=O)NC3=O)cc1	-0.31 (inactive)	2490
Cn1c(C(=O)N2CCC(C(=O)N3CCN(Cc4ccc5c(c4)OCO5)CC3)CC2)cc2sccc21	-0.39 (inactive)	2820
CN(C)C(=O)C1C2NC(=S)N(c3cccc(Cl)c3)C1(C)Oc1ccc(Cl)cc12 (centres undefined)	-0.39 (inactive)	3180
O=C(C1=NN(c2ccccc2)C2C(=O)N(c3cccc(Cl)c3)C(=O)C12)c1ccccc1 (centres undefined)	-0.32 (inactive)	3140
CCC(C)(C(=O)NC1CCCC1)N(C(=O)CNC(C)=O)c1ccccc1 (centres undefined)	-0.39 (inactive)	2960
O=C(/C=C/c1ccc2ccccc2n1)c1cc(Br)ccc1O	-0.24 (inactive)	2620
CC(C)CNC(=O)CSc1nnc(-c2cccc(S(=O)(=O)N3CCCCC3)c2)o1	-0.39 (inactive)	2900
CCN(CC)c1ccc(/C=C2/SC(=O)N(C(C)C)C2=O)o1	0.73	596

Compound	z-score	cell count [cells]
Cc1ccc(Nc2nc3c([nH]2)c(=O)n(C)c(=O)n3C)cc1	-0.39 (inactive)	2720
Nc1c(C(=O)Nc2nccs2)sc2nc(-c3cccs3)cc(C(F)(F)F)c12	0.39	2940
CC(=O)C(=Cc1cn(-c2ccccc2)nc1-c1ccccc1)C(C)=O	-0.32 (inactive)	3020
O=C(COc1ccc(Cl)cc1)NCc1nnc(SCC(=O)NC2CCCCC2)o1	-0.32 (inactive)	3660
CC1(C)Cc2c(c(-c3ccccc3)[nH]c(=O)c2C#N)CO1	-0.33 (inactive)	3520
N#Cc1nc(N2CCOCC2)nc(N2CCOCC2)n1	-0.39 (inactive)	3120
CNC(=O)c1ccc(-c2sc3nc(N4CCOCC4)c4c(c3c2N)CC(C)(C)OC4)o1	-0.33 (inactive)	2290
CCOC(=O)c1ccc(CSc2nnc(-c3ccncc3)n2N)cc1	-0.33 (inactive)	3110
CCN1CC=C2C(C#N)=C(N)C(C#N)(C#N)[C@H](c3cccc(OC)c3OC)[C@H]2C1	0.28	2790
COC(=O)c1cc(NC(=O)c2ccccc2)c(=O)oc1/C=C/Nc1ccc(Oc2ccccc2)cc1	0.11	3070
Brc1ccc(Oc2nsnc2N2CCOCC2)cc1	-0.34 (inactive)	3270
COc1ccc(CN(CC2CCC(C(=O)O)CC2)C(=S)Nc2cccc(C)c2)cc1 (centres undefined)	-0.38 (inactive)	3120
Cc1ccc(Nc2nc(Cl)c(C=O)s2)cc1Cl	-0.27 (inactive)	2840
CN1C(=O)CC(N2CCN(Cc3ccc(Cl)cc3)CC2)C1=O (centres undefined)	-0.39 (inactive)	2870
c1ccc2c(N3CCNCC3)nsc2c1	-0.39 (inactive)	2010
O=C1S/C(=C\c2ccc(N3CCOCC3)o2)C(=O)N1Cc1ccc(F)cc1	1.17	665
Cc1ccc(C2CC(=O)NC(SCc3ccccc3)=C2C#N)o1 (centres undefined)	-0.33 (inactive)	3270
CCN(CC)c1ccc2cc(S(=O)(=O)c3ccc(Cl)cc3)c(=O)oc2c1	-0.31 (inactive)	2590
Cc1ccc2nc(/C(C#N)=C\c3ccc(N4CCOCC4)o3)[nH]c2c1	0.7	2680
CC1CCN(S(=O)(=O)c2ccc3c(c2)c(=O)c(C(=O)N2CCCCC2)cn3C)CC1	-0.33 (inactive)	2850
Cc1cccc(OCCNc2nc3c(c(=O)n(C)c(=O)n3C)n2C)c1	-0.33 (inactive)	3060
CCOc1ccc(OCCCCn2ccnc2)cc1	-0.39 (inactive)	2900
CN(C)c1ccc(C(=O)N/N=C/c2cc(Br)cc(Br)c2O)cc1	-0.38 (inactive)	2500
COc1c2c(nc3ccccc13)OC(C(C)(O)COC(C)=O)C2 (centres undefined)	-0.33 (inactive)	2830
COc1ccccc1N1CCN(C/C(O)=C(\C#N)c2nc(-c3ccccc3)cs2)CC1	-0.38 (inactive)	3090
CCS(=O)(=O)N1Cc2ccccc2CC1C(=O)OCC(=O)Nc1ccc(C)cc1 (centres undefined)	-0.33 (inactive)	3150

Compound	z-score	cell count [cells]
O=C(O)c1cc(-c2ccncc2)nc2ccc(F)cc12	-0.39 (inactive)	3070
CCc1ccc(NC(=O)c2cc(C(C)C)on2)cc1	-0.39 (inactive)	3050
CN(C)c1ccc(/C=C2\SC(=O)N(CCc3nnc(N)s3)C2=O)cc1	-0.3 (inactive)	3290
O=C(NCc1cn2ccccc2n1)c1ccco1	-0.33 (inactive)	3100
O=C(NCC1CCCO1)C1CCN(S(=O)(=O)N2CCCC2)CC1 (centres undefined)	-0.33 (inactive)	3190
COc1ccc(NC2=Nc3ccccc3N3C2=Nc2c(c(C)nn2-c2ccc(C)cc2)C3c2cccnc2)cc1 (centres undefined)	-0.31 (inactive)	2790
Cc1ccc(SCc2cc(-c3ccc(Cl)cc3)no2)cc1	-0.38 (inactive)	2860
COC(=O)Cc1c(C)nc2nc(NCc3ccccc3OC)[nH]n2c1=O	-0.26 (inactive)	3050
N#CC(C#N)=C1C=C2C=C(N3CCCCC3)CCC2CC1 (centres undefined)	3	3020
O=C1/C(=C/c2ccc(N3CCOCC3)o2)SC(=Nc2ccccc2)N1CCc1c[nH]c2ccccc12	2.67	192
CN1C(=S)N(c2cccnc2)C(=O)/C1=C\c1ccc(N(C)C)cc1	-0.22 (inactive)	3030
O=C1CCCC(O)=C1C=NCCc1ccccc1	-0.38 (inactive)	3080
Cc1nn(-c2c(Cl)cc(Cl)cc2Cl)c(=O)c2ccccc12	-0.33 (inactive)	3220
O=C(CC12CC3CC(CC(C3)C1)C2)NCC(=O)N1CCc2ccccc2C1	-0.33 (inactive)	2920
Cc1ccc(S(=O)(=O)c2cccc(S(=O)(=O)N3CCCC3)c2)cc1S(=O)(=O)N1CCCC1	-0.33 (inactive)	2360
Cc1nc(NC(=O)COC(=O)CCS(=O)(=O)c2ccccc2Cl)c(Cl)cc1Cl	-0.39 (inactive)	3210
Cc1ccn2c(NC3CCCCC3)c(C)nc2c1	-0.39 (inactive)	2990
CC1(C)Cc2c(ccc3ccccc23)C(c2cc3ccccc3oc2=O)=N1	-0.33 (inactive)	2730
COC1=CCC2([N+](=O)[O-])CN(CCO)CC1([N+](=O)[O-])C2 (centres undefined)	-0.33 (inactive)	3440
Cc1cc(NC(=S)N(Cc2ccc(Br)cc2)Cc2ccc(C(=O)O)cc2)ccc1Cl	-0.38 (inactive)	2830
CN(C)C(=O)C12CCC(C)(c3nc4ccccc4nc31)C2(C)C (centres undefined)	-0.38 (inactive)	3350
CCC(C(=O)OCC(=O)Nc1cccc(S(=O)(=O)NC2=NCCCCC2)c1)c1ccccc1 (centres undefined)	-0.33 (inactive)	3080
CN(C)c1ccc(/C=N/NC(=O)CN(c2ccccc2Cl)S(C)(=O)=O)cc1Br	-0.39 (inactive)	3330
COc1cc2c(cc1OC)-c1nncn1C(C)(C)C2	-0.32 (inactive)	3220
CCOC(=O)CC1C(=O)NCCN1c1nc2ccc(C)cn2c(=O)c1/C=C1\SC(=S)N(CC(C)C)C1=O (centres undefined)	0.66	3220
